In patent US12257243B2, “5-hydroxy-7-oxabicyclo[2.2.1]heptane-2-carboxamide derivatives for inducing chondrogenesis for treating joint damage” (NOVARTIS AG, priority 2018, dated 2025):
Where two headings read alike, the source gives them in different places.

System: ALP in normal human articular chondrocytes (NHACs)
Assay: Alkaline Phosphatase (ALP) activity assay (staining and quantitation) in NHACs, prevention of chondrocyte hypertrophy
Type: cell-based
Details: human IL-1 beta 10 ng/mL, 12 days; for IC50: Fast Blue RR staining, high content imaging, read-out: ALP in NHAC IC50; for Emax / ALP in NHAC (% Efficacy): value in parentheses; for Emax: read-out: ALP in NHAC (% Efficacy)
Outline: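 Primary human articular chondrocytes plated at 7,500 cells/well in DMEM with 10% FBS alongside test compound, incubated 5 h at 37 °C, then given IL-1β (10 ng/mL final) for 12 days. Fixed cells stained for ALP with Fast Blue RR/naphthol AS-MX, Hoechst counterstain. Read by fluorescence imaging (561 nm) and/or high-content cell scoring.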

Compound	IC50 (Chondrocyte, 288 h) [µM]	Emax (Chondrocyte, 288 h) [%]	IC50 [µM]	ALP in NHAC (% Efficacy) [%]
Cn1nc(C(F)(F)F)cc1[C@H]1[C@H]2O[C@H](C[C@@H]2O)[C@@H]1C(=O)Nc1cccc(C(F)(F)F)c1 (racemic) [Example 61, rac-(1R,2R,3S,4R,5S)-5-hydroxy-3-(1-methyl-3-(trifluoromethyl)-1H-pyrazol-5-yl)-N-(3-(trifluoromethyl)phenyl)-7-oxabicyclo[2.2.1]heptane-2-carboxamide]	21	46	–	–
Cc1ccc(NC(=O)[C@@H]2[C@@H](c3ccnc(C(F)(F)F)c3)[C@H]3O[C@@H]2C[C@@H]3O)cc1C(F)(F)F (racemic) [Example 64, rac-(1R,2R,3S,4R,5S)-5-hydroxy-N-(4-methy-3-(trifluoromethyl)phenyl-3-(2-(trifluoromethyl)pyridin-4-yl)-7-oxabicyclo[2.2.1]heptane-2-carboxamide]	13	83	–	–
Cn1cc([C@H]2[C@H]3O[C@H](C[C@@H]3O)[C@@H]2C(=O)Nc2ccc(C(F)(F)F)c(F)c2)c(C(F)(F)F)n1 (racemic) [Example 55, rac-(1R,2R,3S,4R,5S)—N-(3-fluoro-4-(trifluoromethylphenyl)-5-hydroxy-3-(1-methyl-3-(trifluoromethyl)-1H-pyrazol-4-yl)-7-oxabicyclo[2.2.1]heptane-2-carboxamide]	16	65	–	–
Cn1cc([C@H]2[C@H]3O[C@H](C[C@@H]3O)[C@@H]2C(=O)Nc2cc(C(F)(F)F)ccn2)c(C(F)(F)F)n1 (single isomer, unassigned) [Example 38a, (1R,2R,3S,4R,5S)-5-hydroxy-3-(1-methyl-3-(trifluoromethyl)-1H-pyrazol-4-yl)-N-(4-(trifluoromethyl)pyridin-2-yl)-7-oxabicyclo[2.2.1]heptane-2-carboxamide or (1S,2S,3R,4S,5R)-5-hydroxy-3-(1-methyl-3-(trifluoromethyl)-1H-pyrazol-4-yl)-N-(4-(trifluoromethyl)pyridin-2-yl)-7-oxabicyclo[2.2.1]heptane-2-carboxamide]	–	–	5.9	81
Cn1cc([C@H]2[C@H]3O[C@H](C[C@@H]3O)[C@@H]2C(=O)Nc2cc(C(F)(F)F)c(Cl)cn2)c(C(F)(F)F)n1 (single isomer, unassigned) [Example 36b, (1R 2R,3S,4R,5S)—N-(5-chloro-4-(trifluoromethyl)pyridin-2-yl)-5-hydroxy-3-(1-methyl-3-(trifluoromethyl)-1H-pyrazol-4-yl)-7-oxabicyclo[2.2.1]heptane-2-carboxamide or (1S,2S,3R,4S,5R)—N-(5-chloro-4-(trifluoromethyl)pyridin-2-yl)-5-hydroxy-3-(1-methyl-3-(trifluoromethyl)-1H-pyrazol-4-yl)-7-oxabicyclo[2.2.1]heptane-2-carboxamide]	–	–	17	83
rac-(1R 2R,3S,4R,5S)—N-(4-fluoro-3-(trifluoromethyl)phenyl-5-hydroxy-3-(1-methyl-3-(trifluoromethyl)-1H-pyrazol-4-yl)-7-oxabicyclo[2.2.1]heptane-2-carboxamide [Example 56]	–	–	> 30	32
COc1ccc(C(F)(F)F)cc1NC(=O)[C@H]1[C@H](c2cn(C)nc2C(F)(F)F)[C@@H]2O[C@H]1C[C@H]2O (single isomer, unassigned) [Example 33b, (1R,2R,3S,4R,5S)-5-hydroxy-N-(2-methoxy-5-trifluoromethyl)phenyl)-3-(1-methyl-3-(trifluoromethyl)-1H-pyrazol-4-L)-7-oxabicyclo[2.2.1]heptane-2-carboxamide or (1S,2S,3R,4S,5R)-5-hydroxy-N-(2-methoxy-5-(trifluoromethyl)phenyl)-3-(1-methyl-3-(trifluoromethyl)-1H-pyrazol-4-L)-7-oxabicyclo[2.2.1]heptane-2-carboxamide]	–	–	3.1	99
O=C(Nc1ccc(F)c(C(F)(F)F)c1)[C@@H]1[C@@H](c2cccc(C(F)(F)F)c2)[C@H]2O[C@@H]1C[C@@H]2O (racemic) [Example 16, rac-(1R,2R,3S,4R,5S)—N-(4-fluoro-3-(trifluoromethyl)phen)-5-hydroxy-3-(3-(trifluoromethyl)phenyl)-7-oxabicyclo[2.2.1]heptane-2-carboxamide]	12	105	–	–
O=C(Nc1cc(C(F)(F)F)cc(C2CC2)n1)[C@@H]1[C@@H](c2cccc(C(F)(F)F)c2)[C@H]2O[C@@H]1C[C@@H]2O (racemic) [Example 7, rac-(1R,2R,3S,4R 5S)—N-(6-cyclopropyl-4-(trifluoromethyl)pyridin-2-yl)-5-hydroxy-3-(3-(trifluoromethyl)phenyl)-7-oxabicyclo[2.2.1]heptane-2-carboxamide]	> 30	12	–	–
Cn1cc([C@H]2[C@H]3O[C@H](C[C@@H]3O)[C@@H]2C(=O)Nc2ccc(C#N)c(C(F)(F)F)c2)c(C(F)(F)F)n1 (racemic) [Example 51, rac-(1R,2R,3S,4R,5S)—N-(4-cyano-3-(trifluoromethyl)phenyl)-5-hydroxy-3-(1-methyl-3-(trifluoromethyl-1H-pyrazol-4-yl)-7-oxabicyclo[2.2.1]heptane-2-carboxamide]	> 30	34	–	–
N#Cc1ccc(C(F)(F)F)cc1NC(=O)[C@@H]1[C@@H](c2cccc(C(F)(F)F)c2)[C@H]2O[C@@H]1C[C@@H]2O (single isomer, unassigned) [Example 48a, (1R,2R,3S,4R,5S)—N-(2-cyano-5-(trifluoromethyl)phenyl)-5-hydroxy-3-(3-(trifluoromethyl)phenyl)-7-oxabicyclo[2.2.1]heptane-2-carboxamide or (1S,2S,3R,4S,5R)—N-(2-cyano-5-(trifluoromethyl)phenyl)-5-hydroxy-3-(3-(trifluoromethyl)phenyl)-7-oxabicyclo[2.2.1]heptane-2-carboxamide]	–	–	1.5	109
Cn1cc([C@H]2[C@H]3O[C@H](C[C@@H]3O)[C@@H]2C(=O)Nc2cccc(C(F)(F)F)c2)c(C(F)(F)F)n1 (single isomer, unassigned) [Example 32b, (1R,2R,3S,4R,5S)-5-hydroxy-3-(1-methyl-3-(trifluoromethyl)-1H-pyrazol-4-yl)-N-(3-(trifluoromethyl)phenyl)-7-oxabicyclo[2.2.1]heptane-2-carboxamide or (1S,2S,3R,4S,5R)-5-hydroxy-3-(1-methyl-3-(trifluoromethyl)-1H-pyrazol-4-yl)-N-(3-(trifluoromethyl)phenyl)-7-oxabicyclo[2.2.1]heptane-2-carboxamide]	–	–	16	109
Cn1cc([C@H]2[C@H]3O[C@H](C[C@@H]3O)[C@@H]2C(=O)Nc2cc(C(F)(F)F)ccc2C#N)c(C(F)(F)F)n1 (racemic) [Example 49, rac-(1R,2R,3S,4R,5S)—N-(2-cyano-5-(trifluoromethyl)phenyl)-5-hydroxy-3-(1-methyl-3-(trifluoromethyl)-1H-pyrazol-4-yl)-7-oxabicyclo[2.2.1]heptane-2-carboxamide]	0.53	96	–	–
COc1cc([C@@H]2[C@@H]3O[C@@H](C[C@H]3O)[C@H]2C(=O)Nc2cc(C(F)(F)F)ccc2C#N)ccn1 (single isomer, unassigned) [Example 78b, (1R,2R,3S,4R,5)-N-(2-cyano-5-(trifluoromethyl)phenyl)-5-hydroxy-3-(2-methoxypyridin-4-yl)-7-oxabicyclo[2.2.1]heptane-2-carboxamide or (1S,2S,3R,4S,5R)—N-(2-cyano-5-(trifluoromethyl)phenyl)-5-hydroxy-3-(2-methoxypyridin-4-yl)-7-oxabicyclo[2.2.1]heptane-2-carboxamide]	–	–	1.4	88
Cc1ccc(C(F)(F)F)cc1NC(=O)[C@@H]1[C@@H](c2cn(C)nc2C(F)(F)F)[C@H]2O[C@@H]1C[C@@H]2O (racemic) [Example 54, rac-(1R,2R,3S,4R,5S)-5-hydroxy-3-(1-methyl-3-(trifluoromethyl)-1H-pyrazol-4-yl)-N-(2-methyl-5-(trifluoromethyl)phenyl)-7-oxabicyclo[2.2.1]heptane-2-carboxamide]	4.1	52	–	–
COc1cc([C@H]2[C@H]3O[C@H](C[C@@H]3O)[C@@H]2C(=O)Nc2ccc(C)c(C(F)(F)F)c2)ccn1 (racemic) [Example 68, rac-(1R,2R,3,4R,5S)-5-hydroxy-3-(2-methoxypyridin-4-yl)-N-(4-methyl-3-(trifluoromethyl)phenyl)-7-oxabicyclo[2.2.1]heptane-2-carboxamide]	> 30	31	–	–
O=C(Nc1cccc(C(F)(F)F)c1)[C@@H]1[C@@H](c2ccc(C(F)(F)F)nc2)[C@H]2O[C@@H]1C[C@@H]2O (racemic) [Example 82, rac-(1R,2R,3S,4R,5S)-5-hydroxy-N-(3-(trifluoromethyl)phenyl)-3-(6-(trifluoromethyl)pyridin-3-yl)-7-oxabicyclo[2.2.1]heptane-2-carboxamide]	4.6	78	–	–
O=C(Nc1cccc(C(F)(F)F)c1)[C@@H]1[C@@H](c2cncc(C(F)(F)F)c2)[C@H]2O[C@@H]1C[C@@H]2O (racemic) [Example 81, rac-(1R,2R,3S,4R,5S)-5-hydroxy-N-(3-(trifluoromethyl)phenyl)-3-(5-(trifluoromethyl)pyridin-3-yl)-7-oxabicyclo[2.2.1]heptane-2-carboxamide]	19	59	–	–
COc1cc([C@H]2[C@H]3O[C@H](C[C@@H]3O)[C@@H]2C(=O)Nc2cc(C)cc(C(F)(F)F)c2)ccn1 (racemic) [Example 69, rac-(1R,2R,3S,4R,5S)-5-hydroxy-3-(2-methoxypyridin-4-yl)-N-(3-methyl-5-(trifluoromethylphenyl)-7-oxabicyclo[2.2.1]heptane-2-carboxamide]	25	29	–	–
